Results on 27 compounds are retold here after patent publication US20100267697A1, “ION CHANNEL MODULATORS” (Wyeth, priority 2006, published 2010).

For this assay, the target named is T1, human Cav2.2 (composed of the subunits α1, β3 and α2δ) (Homo sapiens, UniProt Q00975).
T1 construct: expressed in transfected cells
The assay is described as follows: FLIPR assay (TSA201 cells stably transfected with human Cav2.2 and human Kir2.3, FLUO-4 Ca2+ signal, KCl depolarization). It counts as cell-based. The settings on record: 70 mM KCl depolarization, average value. The method, then:
TSA201 cells stably transfected with human Cav2.2 (composed of the subunits α1, β3 and α2δ) and human Kir2.3 to enhance the FLIPR Ca^2+ signal were used. These cells were plated on 384-well collagen-coated plates (BD Bioscience, Franklin Lakes, N.J.) at a density of 2×10^4 cells/well one day prior to the FLIPR assay. […] Culture media is removed and replaced with 25 μl of the FLUO-4 dye solution and incubated for one hour at room temperature. The cell plate is then placed on the FLIPR where the dye is aspirated off and replaced with 25 μl of HBSS (Invitrogen, Carlsbad, Calif.). The HBSS is then aspirated and replaced with […] of compound which is diluted in HBSS with 1% DMSO. Compounds are incubated on the cells for 15 minutes. The cells are then depolarized with 25 μl of 140 mM KCl solution (also containing 2 mM CaCl2 and 10 mM HEPES). The final concentration of KCl on the cells is 70 mM.

Structures can show the parent of a compound that is named as a salt.

T1 sequence (Q00975 whole entry): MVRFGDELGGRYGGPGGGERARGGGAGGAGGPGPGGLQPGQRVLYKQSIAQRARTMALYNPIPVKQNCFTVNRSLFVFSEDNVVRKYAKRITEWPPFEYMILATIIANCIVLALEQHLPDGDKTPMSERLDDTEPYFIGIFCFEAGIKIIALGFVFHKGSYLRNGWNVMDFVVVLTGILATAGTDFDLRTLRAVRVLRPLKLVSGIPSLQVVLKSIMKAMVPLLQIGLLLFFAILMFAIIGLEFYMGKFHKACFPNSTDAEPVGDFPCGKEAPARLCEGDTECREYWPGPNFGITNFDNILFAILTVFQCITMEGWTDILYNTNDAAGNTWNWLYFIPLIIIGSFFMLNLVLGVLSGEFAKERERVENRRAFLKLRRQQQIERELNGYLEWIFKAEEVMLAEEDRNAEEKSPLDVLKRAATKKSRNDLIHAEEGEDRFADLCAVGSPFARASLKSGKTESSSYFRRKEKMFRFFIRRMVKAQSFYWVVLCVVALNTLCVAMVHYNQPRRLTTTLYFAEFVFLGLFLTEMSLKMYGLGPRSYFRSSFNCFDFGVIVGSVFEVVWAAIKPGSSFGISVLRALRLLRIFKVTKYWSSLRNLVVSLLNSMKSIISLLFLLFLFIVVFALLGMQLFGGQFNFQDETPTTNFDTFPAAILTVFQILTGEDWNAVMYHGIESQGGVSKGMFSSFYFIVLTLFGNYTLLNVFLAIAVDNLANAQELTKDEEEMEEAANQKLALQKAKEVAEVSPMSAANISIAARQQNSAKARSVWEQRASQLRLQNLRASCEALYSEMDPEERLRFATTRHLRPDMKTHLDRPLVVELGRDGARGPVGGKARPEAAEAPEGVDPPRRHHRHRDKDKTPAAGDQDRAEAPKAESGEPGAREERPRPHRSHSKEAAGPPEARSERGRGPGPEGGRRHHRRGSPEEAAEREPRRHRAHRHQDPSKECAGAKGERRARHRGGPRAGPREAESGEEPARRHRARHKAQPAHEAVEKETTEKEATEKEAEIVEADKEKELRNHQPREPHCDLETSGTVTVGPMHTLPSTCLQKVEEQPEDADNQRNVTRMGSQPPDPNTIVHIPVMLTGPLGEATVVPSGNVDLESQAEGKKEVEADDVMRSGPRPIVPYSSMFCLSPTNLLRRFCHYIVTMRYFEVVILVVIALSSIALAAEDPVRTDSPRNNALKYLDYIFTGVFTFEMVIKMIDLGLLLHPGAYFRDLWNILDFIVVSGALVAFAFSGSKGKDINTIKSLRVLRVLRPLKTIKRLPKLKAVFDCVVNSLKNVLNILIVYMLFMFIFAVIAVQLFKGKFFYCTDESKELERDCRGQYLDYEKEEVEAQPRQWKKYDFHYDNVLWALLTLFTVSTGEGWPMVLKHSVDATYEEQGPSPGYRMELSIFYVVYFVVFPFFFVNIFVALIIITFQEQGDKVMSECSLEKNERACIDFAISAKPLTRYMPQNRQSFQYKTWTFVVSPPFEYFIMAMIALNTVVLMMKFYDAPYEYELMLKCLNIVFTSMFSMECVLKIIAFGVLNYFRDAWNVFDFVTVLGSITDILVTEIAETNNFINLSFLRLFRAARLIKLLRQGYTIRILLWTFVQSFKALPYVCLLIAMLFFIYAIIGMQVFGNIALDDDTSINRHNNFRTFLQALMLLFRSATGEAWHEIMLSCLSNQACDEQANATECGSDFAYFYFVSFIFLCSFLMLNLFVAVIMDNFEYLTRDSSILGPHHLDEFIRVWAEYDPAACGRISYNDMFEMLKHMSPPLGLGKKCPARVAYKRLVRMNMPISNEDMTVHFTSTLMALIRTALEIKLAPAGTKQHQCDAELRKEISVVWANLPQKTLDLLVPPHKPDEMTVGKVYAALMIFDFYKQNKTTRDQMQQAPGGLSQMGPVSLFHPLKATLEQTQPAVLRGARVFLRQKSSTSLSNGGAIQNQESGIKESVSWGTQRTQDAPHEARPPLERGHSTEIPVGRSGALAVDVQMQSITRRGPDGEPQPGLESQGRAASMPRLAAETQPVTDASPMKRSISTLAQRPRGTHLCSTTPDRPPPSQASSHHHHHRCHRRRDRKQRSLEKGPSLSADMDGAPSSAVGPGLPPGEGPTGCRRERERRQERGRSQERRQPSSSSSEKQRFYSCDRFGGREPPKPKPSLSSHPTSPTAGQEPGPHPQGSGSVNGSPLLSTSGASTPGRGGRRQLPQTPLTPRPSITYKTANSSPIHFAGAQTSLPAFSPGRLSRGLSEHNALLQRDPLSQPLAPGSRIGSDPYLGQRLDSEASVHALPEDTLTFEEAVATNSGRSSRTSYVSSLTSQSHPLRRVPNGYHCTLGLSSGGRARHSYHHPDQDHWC
T1 sequence (P54284 whole entry partner): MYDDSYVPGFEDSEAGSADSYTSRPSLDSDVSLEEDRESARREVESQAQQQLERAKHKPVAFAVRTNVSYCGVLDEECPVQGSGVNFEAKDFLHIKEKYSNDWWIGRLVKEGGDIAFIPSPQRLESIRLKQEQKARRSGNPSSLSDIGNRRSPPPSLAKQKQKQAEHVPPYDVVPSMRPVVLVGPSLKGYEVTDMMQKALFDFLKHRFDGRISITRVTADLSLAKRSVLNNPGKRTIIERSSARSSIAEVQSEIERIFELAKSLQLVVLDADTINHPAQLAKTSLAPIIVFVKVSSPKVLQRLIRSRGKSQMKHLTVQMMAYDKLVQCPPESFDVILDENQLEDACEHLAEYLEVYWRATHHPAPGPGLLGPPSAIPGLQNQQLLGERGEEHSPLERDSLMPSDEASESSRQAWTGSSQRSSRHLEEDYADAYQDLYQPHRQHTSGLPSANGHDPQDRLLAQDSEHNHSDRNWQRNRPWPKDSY
T1 sequence (P54289 25-946 partner limits assumed): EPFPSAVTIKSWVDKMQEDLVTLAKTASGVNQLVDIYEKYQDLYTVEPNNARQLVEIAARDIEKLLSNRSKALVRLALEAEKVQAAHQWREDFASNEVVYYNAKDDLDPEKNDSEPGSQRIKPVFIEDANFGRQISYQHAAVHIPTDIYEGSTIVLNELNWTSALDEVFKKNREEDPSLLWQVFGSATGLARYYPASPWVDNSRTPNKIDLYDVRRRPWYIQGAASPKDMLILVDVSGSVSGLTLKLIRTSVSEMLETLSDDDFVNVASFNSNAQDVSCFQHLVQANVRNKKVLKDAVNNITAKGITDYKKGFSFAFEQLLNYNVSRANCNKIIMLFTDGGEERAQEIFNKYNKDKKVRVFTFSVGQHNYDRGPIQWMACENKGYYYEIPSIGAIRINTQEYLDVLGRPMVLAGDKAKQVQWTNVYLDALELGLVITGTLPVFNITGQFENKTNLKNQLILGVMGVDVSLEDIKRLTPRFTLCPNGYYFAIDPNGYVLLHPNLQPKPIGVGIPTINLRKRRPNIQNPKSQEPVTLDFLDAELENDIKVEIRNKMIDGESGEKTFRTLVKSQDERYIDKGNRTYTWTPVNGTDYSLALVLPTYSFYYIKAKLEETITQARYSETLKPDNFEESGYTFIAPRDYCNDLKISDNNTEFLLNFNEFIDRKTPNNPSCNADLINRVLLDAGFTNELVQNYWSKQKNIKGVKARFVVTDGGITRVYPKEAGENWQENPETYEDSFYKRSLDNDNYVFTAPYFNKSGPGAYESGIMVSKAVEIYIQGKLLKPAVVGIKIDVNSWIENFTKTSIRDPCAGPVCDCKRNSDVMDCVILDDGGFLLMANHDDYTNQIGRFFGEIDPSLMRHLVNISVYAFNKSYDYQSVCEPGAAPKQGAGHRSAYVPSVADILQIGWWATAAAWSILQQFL
T1 sequence (P54289 947-1103 partner limits assumed): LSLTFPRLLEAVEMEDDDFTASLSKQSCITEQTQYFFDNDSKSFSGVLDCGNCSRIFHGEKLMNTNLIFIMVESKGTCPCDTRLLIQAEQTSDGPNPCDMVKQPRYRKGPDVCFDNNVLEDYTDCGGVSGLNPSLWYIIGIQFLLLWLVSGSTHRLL

For orientation: IC50 means the concentration at which inhibition is half-maximal. Read a high IC50 as weaker potency. In turn, `CN1CCN(c2ccc(CN(C(=O)C3CCCCC3)c3ccc(F)cc3)cn2)CC1` [Compound 125, N-(4-fluorophenyl)-N-{[6-(4-methylpiperazin-1-yl)pyridin-3-yl]methyl}cyclohexanecarboxamide] had an IC50 of 9.5 µM.

As for `CN1CCN(c2ccc(CN(C(=O)NC(C)(C)C)c3ccc(F)cc3)cn2)CC1` [Compound 126, N′-(tert-butyl)-N-(4-fluorophenyl)-N-{[6-(4-methylpiperazin-1-yl)pyridin-3-yl]methyl}urea], the IC50 is 30 µM.

As for `CC(CC(=O)N(Cc1ccc(N(C)CCc2ccccn2)nc1)c1ccc(F)cc1)C(F)(F)F` (stereo not drawn) [Compound 127], inhibition was half-maximal at 2.6 µM (IC50).

Consider `O=C(C1CCCCC1)N(Cc1ccc(N2CCN(c3ccccn3)CC2)nc1)c1ccc(F)cc1` [Compound 128, N-(4-fluorophenyl)-N-{[6-(4-pyridin-2-ylpiperazin-1-yl)pyridin-3-yl]methyl}cyclohexanecarboxamide], for which half-maximal inhibition (IC50) required 9.1 µM.

`CCN(CC)c1ccc(CN(C(=O)Cc2cccs2)c2ccc(F)cc2)cn1` [Compound 129] had an IC50 of 1.5 µM.

Compound `CN(CCO)c1ccc(CN(C(=O)C(C)(C)C)c2ccc(F)cc2)cn1` [Compound 130, N-(4-fluorophenyl)-N-({6-[(2-hydroxyethyl)(methyl)amino]pyridin-3-yl}methyl)-2,2-dimethylpropanamide] yielded an IC50 of 14.8 µM.

Consider `Cc1ccc(OCCN(C)c2ccc(CN(C(=O)C(C)(C)C)c3ccc(F)cc3)cn2)nc1` [Compound 131, N-(4-fluorophenyl)-2,2-dimethyl-N-{[6-(methyl{2-[(5-methylpyridin-2-yl)oxy]ethyl}amino)pyridin-3-yl]methyl}propanamide], for which the IC50 amounted to 8.1 µM.

`CC(C)(C)C(=O)N(Cc1ccc(N2CCCC2)nc1)c1ccc(F)cc1` [Compound 132, N-(4-fluorophenyl)-2,2-dimethyl-N-[(6-pyrrolidin-1-ylpyridin-3-yl)methyl]propanamide] came in with an IC50 of 8.2 µM.

`CCN(CC)C1CCN(c2ccc(CN(C(=O)C(C)(C)C)c3ccc(F)cc3)cn2)C1` (stereo not drawn) [Compound 133, N-({6-[3-(diethylamino)pyrrolidin-1-yl]pyridin-3-yl}methyl)-N-(4-fluorophenyl)-2,2-dimethylpropanamide] displayed a half-maximal inhibitory concentration (IC50) of 11.5 µM.

For the compound `CC(C)(C)C(=O)N(Cc1csc(N2CCCCC2)n1)c1ccc(F)cc1` [Compound 134, N-(4-fluorophenyl)-2,2-dimethyl-N-[(2-piperidin-1-yl-1,3-thiazol-4-yl)methyl]propanamide], the midpoint of inhibition, the IC50, lay at 4.4 µM.

`CCC(=O)N(CCc1cccnc1)c1ccc(CN(C(=O)C(C)(C)C)c2ccc(F)cc2)cn1` [Compound 135]: the IC50 is 1.35 µM.

Turning to `CC(C)(C)C(=O)N(Cc1csc(N2CCOCC2)n1)c1ccc(F)cc1` [Compound 136, N-(4-fluorophenyl)-2,2-dimethyl-N-[(2-morpholin-4-yl-1,3-thiazol-4-yl)methyl]propanamide], 5.6 µM corresponded to half-maximal inhibition (IC50).

As for `O=C(C1CCCCC1)N(Cc1csc(N2CCOCC2)n1)c1ccc(F)cc1` [Compound 137, N-(4-fluorophenyl)-N-[(2-morpholin-4-yl-1,3-thiazol-4-yl)methyl]cyclohexanecarboxamide], the IC50 was found to be 11.2 µM.

With `CCC(C)(C)C(=O)N(Cc1csc(N2CCOCC2)n1)c1ccc(F)cc1` [Compound 138, N-(4-fluorophenyl)-2,2-dimethyl-N-[(2-morpholin-4-yl-1,3-thiazol-4-yl)methyl]butanamide], half-maximal inhibition (IC50) was put at 14.5 µM.

In turn, `CCN(c1ccc(CN(C(=O)C(C)(C)C)c2ccc(F)cc2)cn1)C1CC1` [Compound 139, N-({6-[cyclopropyl(ethyl)amino]pyridin-3-yl}methyl)-N-(4-fluorophenyl)-2,2-dimethylpropanamide] registered an IC50 of 1.3 µM.

As for `CC(C)(C)C(=O)N(Cc1csc(N2CCCC2)n1)c1ccc(F)cc1` [Compound 140, N-(4-fluorophenyl)-2,2-dimethyl-N-[(2-pyrrolidin-1-yl-1,3-thiazol-4-yl)methyl]propanamide], the IC50 is 4.4 µM.

Take `CN(c1ccc(F)cc1)c1nc(CN(C(=O)C(C)(C)C)c2ccc(F)cc2)cs1` [Compound 141, N-(4-fluorophenyl)-N-({2-[(4-fluorophenyl)(methyl)amino]-1,3-thiazol-4-yl}methyl)-2,2-dimethylpropanamide]: the IC50 stood at 7.6 µM.

Compound `COc1ccc(N(C)c2nc(CN(C(=O)C(C)(C)C)c3ccc(F)cc3)cs2)cc1` [Compound 142, N-(4-fluroophenyl)-N-({2-[(4-methoxyphenyl)(methyl)amino]-1,3-thiazol-4-yl}methyl)-2,2-dimethylpropanamide] registered a 50% inhibitory concentration (IC50) of 6.8 µM.

`CCN(c1nc(CN(C(=O)C(C)(C)C)c2ccc(F)cc2)cs1)C1CC1` [Compound 143, N-({2-[cyclopropyl(ethyl)amino]-1,3-thiazol-4-yl}methyl)-N-(4-fluorophenyl)-2,2-dimethylpropanamide] returned an IC50 of 3.8 µM.

In turn, `CC(C)(C)C(=O)N(Cc1csc(Br)n1)c1ccc(F)cc1` [Compound 144, N-[(2-bromo-1,3-thiazol-4-yl)methyl]-N-(4-fluorophenyl)-2,2-dimethylpropanamide] came in with an IC50 of 3.2 µM.

On to `CC1CN(c2nc(CN(C(=O)C(C)(C)C)c3ccc(F)cc3)cs2)CC(C)N1` (stereo not drawn) [Compound 145, N-{[2-(3,5-dimethylpiperazin-1-yl)-1,3-thiazol-4-yl]methyl}-N-(4-fluorophenyl)-2,2-dimethylpropanamide], for which the 50% inhibitory concentration (IC50) turned out to be 18.5 µM.

`CC(C)(C)OC(=O)N1CCN(c2nc(CN(C(=O)C(C)(C)C)c3ccc(F)cc3)cs2)CC1` [Compound 146, tert-butyl 4-(4-{[(2,2-dimethylpropanoyl)(4-fluorophenyl)amino]methyl}--1,3-thiazol-2-yl)piperazine-1-carboxylate] registered an IC50 of 35.4 µM.

`CC(C)(C)C(=O)N(Cc1csc(N2CCN(c3ccccc3)CC2)n1)c1ccc(F)cc1` [Compound 147, N-(4-fluorophenyl)-2,2-dimethyl-N-{[2-(4-phenylpiperazin-1-yl)-1,3-thiazol-4-yl]methyl}propanamide]: half-maximal inhibition (IC50) required 2.8 µM.

As for `CC(C)N1CCN(c2nc(CN(C(=O)C(C)(C)C)c3ccc(F)cc3)cs2)CC1` [Compound 148, N-(4-fluroophenyl)-N-{[2-(4-isopropylpiperazin-1-yl)-1,3-thiazol-4-yl]methyl}-2,2-dimethylpropanamide], the IC50 stood at 15.4 µM.

On to `CC(C)(C)C(=O)N(Cc1csc(N2CCN(c3ccccn3)CC2)n1)c1ccc(F)cc1` [Compound 149, N-(4-fluorophenyl)-2,2-dimethyl-N-{[2-(4-pyridin-2-ylpiperazin-1-yl)--1,3-thiazol-4-yl]methyl}propanamide], for which the IC50 came to 8.1 µM.

`CN1CCN(c2nc(CN(C(=O)C(C)(C)C)c3ccc(F)cc3)cs2)CC1` [Compound 150, N-(4-fluorophenyl)-2,2-dimethyl-N-{[2-(4-methylpiperazin-1-yl)-1,3-thiazol-4-yl]methyl}propanamide]: half-maximal inhibition (IC50) required 10.6 µM.

With `CC(C)(C)C(=O)N(Cc1csc(N2CCN(c3ncccn3)CC2)n1)c1ccc(F)cc1` [Compound 151, N-(4-fluorophenyl)-2,2-dimethyl-N-{[2-(4-pyrimidin-2-ylpiperazin-1-yl)-1,3-thiazol-4-yl]methyl}propanamide dihydrochloride], it took 4 µM to reach half-maximal inhibition (IC50).
